Values quoted from earlier work as cited in publication PMC12451523 (RSC Advances, 2025).

Target: fungal tyrosinase
Settings: read-out: IC50 (μM) ± S.E., standard inhibitors, ref [50]

IC50 [µM] | Structure (SMILES)
30.3 ± 1 | O=c1cc(CO)occ1O [Kojic acid]
11.5 ± 1 | O=C1O[C@H]([C@@H](O)CO)C(O)=C1O [Ascorbic acid]
